Laboratory results as given in the supplement of paper PMC10733146.

Experiments:
Experiment in all cases: viability relative to DMSO control (fraction); higher = less drug effect (more viable cells)
Settings in all cases: 48 h
[1] = tested on: primary AML patient cells (S002)
Procedure, shortened: (§1)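 Viability was quantified by CellTiter-Glo luminescence and related to the median of 16 inner DMSO wells. Before that, primary mononuclear tumour cells, fresh or cryopreserved and Ficoll-isolated from blood or bone marrow or prepared from processed lymph node, were plated at 4 × 10^4 cells per well in 384-well plates containing pre-plated compounds at five concentrations, one well each. Plates were incubated in RPMI-1640 with penicillin/streptomycin, L-glutamine and human serum at 37 °C and 5% CO2 for 48 h.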

[2] = tested on: primary AML patient cells (S009)
Procedure, shortened: as §1

[3] = tested on: primary AML patient cells (S017)
Procedure, shortened: as §1

[4] = tested on: primary AML patient cells (S021)
Procedure, shortened: as §1

[5] = tested on: primary AML patient cells (S025)
Procedure, shortened: as §1

[6] = tested on: primary AML patient cells (S037)
Procedure, shortened: as §1

[7] = tested on: primary AML patient cells (S055)
Procedure, shortened: as §1

[8] = tested on: primary AML patient cells (S060)
Procedure, shortened: as §1

[9] = tested on: primary AML patient cells (S071)
Procedure, shortened: as §1

[10] = tested on: primary AML patient cells (S072)
Procedure, shortened: as §1

[11] = tested on: primary AML patient cells (S081)
Procedure, shortened: as §1

[12] = tested on: primary AML patient cells (S089)
Procedure, shortened: as §1

[13] = tested on: primary AML patient cells (S091)
Procedure, shortened: as §1

[14] = tested on: primary B-PLL patient cells (S016)
Procedure, shortened: as §1

[15] = tested on: primary BL patient cells (S005)
Procedure, shortened: as §1

[16] = tested on: primary CLL patient cells (S043)
Procedure, shortened: as §1

[17] = tested on: primary DLBCL patient cells (S082)
Procedure, shortened: as §1

[18] = tested on: primary MCL patient cells (S053)
Procedure, shortened: as §1

[19] = tested on: primary MCL patient cells (S068)
Procedure, shortened: as §1

[20] = tested on: primary T-PLL patient cells (S008)
Procedure, shortened: as §1

CC(C)c1cc(-c2n[nH]c(=O)n2-c2ccc3c(ccn3C)c2)c(O)cc1O [Ganetespib]
viability ([1]; 0.0032 µM): 0.957
viability ([1]; 0.016 µM): 0.414
viability ([1]; 0.08 µM): 0.328
viability ([1]; 0.4 µM): 0.326
viability ([1]; 2 µM): 0.323
viability ([2]; 0.0032 µM): 0.953
viability ([2]; 0.016 µM): 0.743
viability ([2]; 0.08 µM): 0.542
viability ([2]; 0.4 µM): 0.56
viability ([2]; 2 µM): 0.567
viability ([3]; 0.0032 µM): 1.07
viability ([3]; 0.016 µM): 0.996
viability ([3]; 0.08 µM): 0.371
viability ([3]; 0.4 µM): 0.326
viability ([3]; 2 µM): 0.31
viability ([4]; 0.0032 µM): 0.917
viability ([4]; 0.016 µM): 0.742
viability ([4]; 0.08 µM): 0.53
viability ([4]; 0.4 µM): 0.637
viability ([4]; 2 µM): 0.617
viability ([5]; 0.0032 µM): 0.936
viability ([5]; 0.016 µM): 0.579
viability ([5]; 0.08 µM): 0.343
viability ([5]; 0.4 µM): 0.334
viability ([6]; 0.0032 µM): 0.976
viability ([6]; 0.016 µM): 0.988
viability ([6]; 0.08 µM): 0.947
viability ([6]; 0.4 µM): 0.979
viability ([6]; 2 µM): 0.937
viability ([7]; 0.0032 µM): 0.976
viability ([7]; 0.016 µM): 0.928
viability ([7]; 0.08 µM): 0.403
viability ([7]; 0.4 µM): 0.368
viability ([7]; 2 µM): 0.337
viability ([8]; 0.0032 µM): 0.97
viability ([8]; 0.016 µM): 1.05
viability ([8]; 0.08 µM): 0.154
viability ([8]; 0.4 µM): 0.118
viability ([8]; 2 µM): 0.107
viability ([9]; 0.0032 µM): 0.892
viability ([9]; 0.016 µM): 0.357
viability ([9]; 0.08 µM): 0.142
viability ([9]; 0.4 µM): 0.167
viability ([9]; 2 µM): 0.164
viability ([10]; 0.0032 µM): 1.01
viability ([10]; 0.016 µM): 0.884
viability ([10]; 0.08 µM): 0.412
viability ([10]; 0.4 µM): 0.39
viability ([10]; 2 µM): 0.377
viability ([11]; 0.0032 µM): 0.981
viability ([11]; 0.016 µM): 0.674
viability ([11]; 0.08 µM): 0.0862
viability ([11]; 0.4 µM): 0.0773
viability ([11]; 2 µM): 0.0742
viability ([12]; 0.0032 µM): 0.692
viability ([12]; 0.016 µM): 0.371
viability ([12]; 0.08 µM): 0.182
viability ([12]; 0.4 µM): 0.254
viability ([12]; 2 µM): 0.215
viability ([13]; 0.0032 µM): 0.926
viability ([13]; 0.016 µM): 0.901
viability ([13]; 0.08 µM): 0.364
viability ([13]; 0.4 µM): 0.259
viability ([13]; 2 µM): 0.26
viability ([14]; 0.0032 µM): 1.03
viability ([14]; 0.016 µM): 0.967
viability ([14]; 0.08 µM): 0.569
viability ([14]; 0.4 µM): 0.552
viability ([14]; 2 µM): 0.514
viability ([15]; 0.0032 µM): 0.871
viability ([15]; 0.016 µM): 0.871
viability ([15]; 0.08 µM): 0.637
viability ([15]; 0.4 µM): 0.725
viability ([15]; 2 µM): 0.716
viability ([16]; 0.0032 µM): 0.928
viability ([16]; 0.016 µM): 0.917
viability ([16]; 0.08 µM): 0.637
viability ([16]; 0.4 µM): 0.535
viability ([16]; 2 µM): 0.521
viability ([17]; 0.0032 µM): 1.02
viability ([17]; 0.016 µM): 1.12
viability ([17]; 0.08 µM): 1.09
viability ([17]; 0.4 µM): 1.04
viability ([17]; 2 µM): 1.02
viability ([18]; 0.0032 µM): 0.941
viability ([18]; 0.016 µM): 0.809
viability ([18]; 0.08 µM): 0.326
viability ([18]; 0.4 µM): 0.332
viability ([18]; 2 µM): 0.325
viability ([19]; 0.0032 µM): 1.02
viability ([19]; 0.016 µM): 1.13
viability ([19]; 0.08 µM): 0.532
viability ([19]; 0.4 µM): 0.535
viability ([19]; 2 µM): 0.545
viability ([20]; 0.0032 µM): 0.937
viability ([20]; 0.016 µM): 1
viability ([20]; 0.08 µM): 0.939
viability ([20]; 0.4 µM): 0.988
viability ([20]; 2 µM): 0.961

CO[C@H]1C[C@@H]2CC[C@@H](C)[C@@](O)(O2)C(=O)C(=O)N2CCCC[C@H]2C(=O)O[C@H]([C@H](C)C[C@@H]2CC[C@@H](OC(=O)C(C)(CO)CO)[C@H](OC)C2)CC(=O)[C@H](C)/C=C(\C)[C@@H](O)[C@@H](OC)C(=O)[C@H](C)C[C@H](C)/C=C/C=C/C=C/1C [Temsirolimus]
viability ([1]; 0.032 µM): 0.755
viability ([1]; 0.16 µM): 0.706
viability ([1]; 0.8 µM): 0.702
viability ([1]; 4 µM): 0.62
viability ([1]; 20 µM): 0.44
viability ([2]; 0.032 µM): 0.92
viability ([2]; 0.16 µM): 0.774
viability ([2]; 0.8 µM): 0.846
viability ([2]; 4 µM): 0.769
viability ([2]; 20 µM): 0.533
viability ([3]; 0.032 µM): 0.724
viability ([3]; 0.16 µM): 0.765
viability ([3]; 0.8 µM): 0.739
viability ([3]; 4 µM): 0.727
viability ([3]; 20 µM): 0.634
viability ([4]; 0.032 µM): 0.761
viability ([4]; 0.16 µM): 0.846
viability ([4]; 0.8 µM): 0.818
viability ([4]; 4 µM): 0.737
viability ([4]; 20 µM): 0.605
viability ([5]; 0.032 µM): 0.914
viability ([5]; 0.16 µM): 0.962
viability ([5]; 0.8 µM): 0.883
viability ([5]; 4 µM): 0.893
viability ([5]; 20 µM): 0.754
viability ([6]; 0.032 µM): 0.966
viability ([6]; 0.16 µM): 0.903
viability ([6]; 0.8 µM): 0.957
viability ([6]; 4 µM): 0.931
viability ([6]; 20 µM): 0.807
viability ([7]; 0.032 µM): 0.919
viability ([7]; 0.16 µM): 0.959
viability ([7]; 0.8 µM): 0.957
viability ([7]; 4 µM): 0.955
viability ([7]; 20 µM): 0.812
viability ([8]; 0.032 µM): 1.05
viability ([8]; 0.16 µM): 1.04
viability ([8]; 0.8 µM): 1.04
viability ([8]; 4 µM): 1.06
viability ([8]; 20 µM): 1
viability ([9]; 0.032 µM): 0.837
viability ([9]; 0.16 µM): 0.761
viability ([9]; 0.8 µM): 0.723
viability ([9]; 4 µM): 0.646
viability ([9]; 20 µM): 0.407
viability ([10]; 0.032 µM): 0.733
viability ([10]; 0.16 µM): 0.886
viability ([10]; 0.8 µM): 0.704
viability ([10]; 4 µM): 0.728
viability ([10]; 20 µM): 0.604
viability ([11]; 0.032 µM): 0.885
viability ([11]; 0.16 µM): 0.884
viability ([11]; 0.8 µM): 0.926
viability ([11]; 4 µM): 0.969
viability ([11]; 20 µM): 0.869
viability ([12]; 0.032 µM): 0.752
viability ([12]; 0.16 µM): 0.831
viability ([12]; 0.8 µM): 0.673
viability ([12]; 4 µM): 0.684
viability ([12]; 20 µM): 0.719
viability ([13]; 0.032 µM): 0.697
viability ([13]; 0.16 µM): 0.686
viability ([13]; 0.8 µM): 0.659
viability ([13]; 4 µM): 0.663
viability ([13]; 20 µM): 0.611
viability ([14]; 0.032 µM): 0.618
viability ([14]; 0.16 µM): 0.598
viability ([14]; 0.8 µM): 0.653
viability ([14]; 4 µM): 0.614
viability ([14]; 20 µM): 0.561
viability ([15]; 0.032 µM): 0.775
viability ([15]; 0.16 µM): 0.707
viability ([15]; 0.8 µM): 0.784
viability ([15]; 4 µM): 0.775
viability ([15]; 20 µM): 0.653
viability ([16]; 0.032 µM): 0.749
viability ([16]; 0.16 µM): 0.745
viability ([16]; 0.8 µM): 0.738
viability ([16]; 4 µM): 0.733
viability ([16]; 20 µM): 0.692
viability ([17]; 0.032 µM): 0.794
viability ([17]; 0.16 µM): 0.759
viability ([17]; 0.8 µM): 0.776
viability ([17]; 4 µM): 0.804
viability ([17]; 20 µM): 0.748
viability ([18]; 0.032 µM): 0.884
viability ([18]; 0.16 µM): 0.879
viability ([18]; 0.8 µM): 0.927
viability ([18]; 4 µM): 0.898
viability ([18]; 20 µM): 0.755
viability ([19]; 0.032 µM): 0.604
viability ([19]; 0.16 µM): 0.614
viability ([19]; 0.8 µM): 0.608
viability ([19]; 4 µM): 0.738
viability ([19]; 20 µM): 1.01
viability ([20]; 0.032 µM): 0.982
viability ([20]; 0.16 µM): 0.958
viability ([20]; 0.8 µM): 0.941
viability ([20]; 4 µM): 0.959
viability ([20]; 20 µM): 0.878
